Source: patent US6436963B1 (priority 1998, dated 2002)

Legend:
Type in all cases: in vivo
[1] = system: Erysiphe graminis; assay: Powdery Mildew of Wheat (ERYSGT), protectant spray test on wheat seedlings; conditions: wheat (cultivar Monon), sprayed to run off at 100 ppm, inoculated after 24 hours
[2] = system: Puccinia recondita; assay: Brown Rust (PUCCRT), protectant spray test on wheat seedlings; conditions: wheat (cultivar Monon), sprayed to run off at 100 ppm, inoculated after 24 hours
[3] = system: Leptosphaeria nodorum; assay: Glume Blotch of Wheat (LEPTNO), protectant spray test on wheat seedlings; conditions: wheat (cultivar Monon), sprayed to run off at 100 ppm, inoculated after 24 hours
[4] = system: Phytophthora infestans; conditions: tomatoes (cultivar Rutgers), sprayed to run off at 100 ppm, inoculated after 24 hours

Row | Structure (SMILES) | ERYSGT control of plant disease [1] | PUCCRT control of plant disease [2] | LEPTNO control of plant disease [3] | PHYTIN control of plant disease [4]
1 | CNC(=O)C(=NOC)c1ccccc1COc1ncc(C(O)c2ccccc2F)cc1Cl (racemic) [Example 65] | ++ (++ = 75-100% control of plant disease) | ++ (++ = 75-100% control of plant disease) | ++ (++ = 75-100% control of plant disease) | ++ (++ = 75-100% control of plant disease)
2 | CNC(=O)C(=NOC)c1ccccc1COc1ncc(COCc2ccc(OC)cc2)cc1Cl [Example 25] | ++ (++ = 75-100% control of plant disease) | ++ (++ = 75-100% control of plant disease) | ++ (++ = 75-100% control of plant disease) | + (+ = 25-74% control of plant disease)
3 | CNC(=O)C(=NOC)c1ccccc1COc1ncc(C(C)(C)O)cc1Cl [Example 34] | − (− = 0-24% control of plant disease) | ++ (++ = 75-100% control of plant disease) | + (+ = 25-74% control of plant disease) | + (+ = 25-74% control of plant disease)
4 | CC[Si](CC)(CC)OC(c1ccccc1)c1cnc(OCc2ccccc2C(=NOC)C(=O)NC)c(Cl)c1 (centres unmarked) [Example 67] | ++ (++ = 75-100% control of plant disease) | ++ (++ = 75-100% control of plant disease) | ++ (++ = 75-100% control of plant disease) | = =
5 | CNC(=O)C(=NOC)c1ccccc1COc1ncc(C(OC(=O)OC)c2ccccc2)cc1Cl (centres unmarked) [Example 68] | ++ (++ = 75-100% control of plant disease) | ++ (++ = 75-100% control of plant disease) | − (− = 0-24% control of plant disease) | ++ (++ = 75-100% control of plant disease)
6 | CCOC(c1ccccc1)c1cnc(OCc2ccccc2C(=NOC)C(=O)NC)c(Cl)c1 (centres unmarked) [Example 69] | ++ (++ = 75-100% control of plant disease) | ++ (++ = 75-100% control of plant disease) | ++ (++ = 75-100% control of plant disease) | − (− = 0-24% control of plant disease)
7 | CNC(=O)C(=NOC)c1ccccc1COc1ncc(C(O)c2ccc(C)cc2)cc1Cl (centres unmarked) [Example 70] | ++ (++ = 75-100% control of plant disease) | ++ (++ = 75-100% control of plant disease) | ++ (++ = 75-100% control of plant disease) | ++ (++ = 75-100% control of plant disease)
8 | CNC(=O)C(=NOC)c1ccccc1COc1ncc(C(OC(C)=O)c2ccc(C)cc2)cc1Cl (centres unmarked) [Example 71] | ++ (++ = 75-100% control of plant disease) | ++ (++ = 75-100% control of plant disease) | ++ (++ = 75-100% control of plant disease) | ++ (++ = 75-100% control of plant disease)
9 | CNC(=O)C(=NOC)c1ccccc1COc1ncc(C(O)c2ccccc2)cc1Cl (centres unmarked) [Example 72] | ++ (++ = 75-100% control of plant disease) | ++ (++ = 75-100% control of plant disease) | ++ (++ = 75-100% control of plant disease) | ++ (++ = 75-100% control of plant disease)
10 | CNC(=O)C(=NOC)c1ccccc1COc1ncc(C(O)c2cccc(Cl)c2)cc1Cl (centres unmarked) [Example 73] | ++ (++ = 75-100% control of plant disease) | ++ (++ = 75-100% control of plant disease) | ++ (++ = 75-100% control of plant disease) | ++ (++ = 75-100% control of plant disease)
11 | CNC(=O)C(=NOC)c1ccccc1COc1ncc(C(OC(C)=O)c2ccccc2Cl)cc1Cl (centres unmarked) [Example 74] | ++ (++ = 75-100% control of plant disease) | ++ (++ = 75-100% control of plant disease) | ++ (++ = 75-100% control of plant disease) | ++ (++ = 75-100% control of plant disease)
12 | CNC(=O)C(=NOC)c1ccccc1COc1ncc(C(OC(C)=O)c2cccc(Cl)c2)cc1Cl (centres unmarked) [Example 75] | ++ (++ = 75-100% control of plant disease) | ++ (++ = 75-100% control of plant disease) | ++ (++ = 75-100% control of plant disease) | ++ (++ = 75-100% control of plant disease)
13 | CNC(=O)C(=NOC)c1ccccc1COc1ncc(C(OC(C)=O)c2ccccc2)cc1Cl (centres unmarked) [Example 76] | ++ (++ = 75-100% control of plant disease) | ++ (++ = 75-100% control of plant disease) | ++ (++ = 75-100% control of plant disease) | ++ (++ = 75-100% control of plant disease)
14 | CNC(=O)C(=NOC)c1ccccc1COc1ncc(C(OC(C)=O)c2cccs2)cc1Cl (centres unmarked) [Example 77] | ++ (++ = 75-100% control of plant disease) | ++ (++ = 75-100% control of plant disease) | ++ (++ = 75-100% control of plant disease) | ++ (++ = 75-100% control of plant disease)
15 | CNC(=O)C(=NOC)c1ccccc1COc1ncc(C(OC(C)=O)c2ccc(OC(F)(F)F)cc2)cc1Cl (centres unmarked) [Example 78] | ++ (++ = 75-100% control of plant disease) | ++ (++ = 75-100% control of plant disease) | ++ (++ = 75-100% control of plant disease) | ++ (++ = 75-100% control of plant disease)
16 | CNC(=O)C(=NOC)c1ccccc1COc1ncc(C(OC)c2ccc(OC(F)(F)F)cc2)cc1Cl (centres unmarked) [Example 79] | ++ (++ = 75-100% control of plant disease) | ++ (++ = 75-100% control of plant disease) | ++ (++ = 75-100% control of plant disease) | − (− = 0-24% control of plant disease)
17 | CCCCOC(C)c1cnc(OCc2ccccc2C(=NOC)C(=O)NC)c(Cl)c1 (centres unmarked) [Example 80] | ++ (++ = 75-100% control of plant disease) | ++ (++ = 75-100% control of plant disease) | ++ (++ = 75-100% control of plant disease) | − (− = 0-24% control of plant disease)
18 | CNC(=O)C(=NOC)c1ccccc1COc1ncc(C(O)c2ccccc2C(F)(F)F)cc1Cl (centres unmarked) [Example 81] | ++ (++ = 75-100% control of plant disease) | ++ (++ = 75-100% control of plant disease) | + (+ = 25-74% control of plant disease) | ++ (++ = 75-100% control of plant disease)
19 | CNC(=O)C(=NOC)c1ccccc1COc1ncc(C(OC(C)=O)c2ccccc2F)cc1Cl (centres unmarked) [Example 82] | ++ (++ = 75-100% control of plant disease) | ++ (++ = 75-100% control of plant disease) | ++ (++ = 75-100% control of plant disease) | ++ (++ = 75-100% control of plant disease)
20 | CNC(=O)C(=NOC)c1ccccc1COc1ncc(C(OC(C)=O)c2ccc3ccccc3c2)cc1Cl (centres unmarked) [Example 83] | ++ (++ = 75-100% control of plant disease) | ++ (++ = 75-100% control of plant disease) | ++ (++ = 75-100% control of plant disease) | ++ (++ = 75-100% control of plant disease)
21 | CNC(=O)C(=NOC)c1ccccc1COc1ncc(C(O)c2cccc(C)c2)cc1Cl (centres unmarked) [Example 84] | ++ (++ = 75-100% control of plant disease) | ++ (++ = 75-100% control of plant disease) | − (− = 0-24% control of plant disease) | ++ (++ = 75-100% control of plant disease)
22 | CNC(=O)C(=NOC)c1ccccc1COc1ncc(C(O)c2cccc(C)c2)cc1Cl (centres unmarked) [Example 85] | ++ (++ = 75-100% control of plant disease) | ++ (++ = 75-100% control of plant disease) | ++ (++ = 75-100% control of plant disease) | − (− = 0-24% control of plant disease)
23 | CNC(=O)C(=NOC)c1ccccc1COc1ncc(C(O)(CO)c2ccccc2)cc1Cl (centres unmarked) [Example 86] | − (− = 0-24% control of plant disease) | ++ (++ = 75-100% control of plant disease) | − (− = 0-24% control of plant disease) | ++ (++ = 75-100% control of plant disease)
